“Also recorded” adds a separate entry of the source. Where two headings read alike, the source gives them in different places.
Legend:
fibrin [1] = assay: Direct binding ELISA on fibrin-coated microtiter plates; conditions: for binding to fibrin-coated wells: ELISA, room temperature, 1 hr
Description: The preparation of fibrin coated microtiter plates was adapted from a method described by Christman et al., Biochim. Biophys. Acta. […] Microtiter (Immulon) plates were coated with fibrinogen at a concentration of 50-1000 ng/well/0.1 ml of Tris buffered saline (TBS). The plates were dried for 24 hours at 37° C. and 0.1 ml of thrombin (20 NIH units/100 ml) containing TRASYLOL™ (aprotinin) (400 K.I units/100 ml) in TBS was added to each well and the plates incubated for 2 hours at 37° C. Each well is washed one time with PBS and the plates are blocked for 1.5 hours with 1% BSA in TBS to prevent non-specific binding. A constant concentration of fibronectin and the 11 kDa fibrin-binding polypeptide (500 ng/0.1 ml) in 50 mM Tris-HCl, 0.1M NaCl, pH 7.6 (FBB) were incubated separately with fibrin coated microtiter wells (50-1000 ng) for 1 hr at room temperature (23° C.).
The wells were washed three times with FBB containing 0.05% Tween 20 (FBBT) and incubated for 1 hour with 0.05 ml of the a polyclonal anti-fibronectinantiserum (Calbiochem) or the purified IgG fraction of anti-11 kDa rabbit antisera, respectively, at a concentration of 1 μg/ml in FBBT containing 0.1% BSA (FBBT/BSA). Following three washes with FBBT, the wells were incubated with 0.05 ml of alkaline phosphatase labeled goat anti-rabbit IgG (TAGO) at a concentration of 2 μg/ml in FBBT/BSA, for 1 hour. The reaction was developed with 0.05 ml of […] p-nitrophenyl phosphate (Sigma phosphatase substrate tablets) in 10% diethanolamine, pH 9.8 containing 1 mM MgCl2.
2. […] Binding of ^4 F1.^5 F1 to fibrin coated microtiter plates was examined by ELISA as described above. Microtiter wells were coated with fibrin (50-1000 ng) and blocked, as described earlier, and incubated with the module pair ^4 F1.^5 F1 (500 ng/0.1 ml or 1000 ng/0.1 ml in FBB) for 1 hour, at room temperature.
Fibrin-binding activity was also assessed by an ELISA. Fn was reacted with fibrin-coated microtiter plates and bound Fn was determined by incubation with a polyclonal rabbit anti-Fn antiserum followed by alkaline phosphatase-labeled anti-rabbit Ig.

fibrin [2] = assay: Fibrin-SEPHAROSE affinity chromatography (binding and elution); parameters: species or system bovine
Description: Bovine fibrinogen was cross-linked to CNBr-activated SEPHAROSE™ (5 mg/ml beads) according to the manufacturer's instructions. Coupled fibrinogen was subsequently converted to fibrin by incubation with human thrombin to a final concentration of 5 NIH units/ml and 100 K.I. (kallikrein inhibitory) units/ml of aprotinin (in 0.05M Tris-HCI buffer, pH 7.6, containing 0.1M NaCl and 0.01M EDTA) for three hours, at room temperature (Gold, et al. (1983) Biochemistry 22, 4113-4119).
1.0M NaCl in 0.05M tris buffer, pH 8.0.
The fibrin-binding activity of the proteolytically derived 25.9 kDa fragment of Fn was determined by its ability to bind to a fibrin affinity matrix. […] FBB was used to equilibrate and wash the column. Following warming of the column to 22° C., the column was washed with FBB until absorbance at 280 nm (A280) was less than 0.01, and bound protein eluted with 0.05M Tris-HCl, 0.5M NaCl, 6M urea buffer, pH 7.6.
The module (500 μg/1.0 ml) was incubated for 4 hours (while rotating) at 4° C. in the presence of 1.0 ml fibrin-SEPHAROSE™ (5 mg fibrin/ml SEPHAROSE™ beads) equilibrated in […] Tris-HCl, 0.1M NaCl buffer, pH 7.6.
The 11 KDa peptide (50 μg/0.206 ml) was radiolabeled using the IODO-BEAD method (Pierce Chemical). The peptide was added to one IODO-BEAD in the presence of 100 μCi ^125 I (17.4 Ci/mg, New England Nuclear) and incubated on ice for 10 minutes. The bead was removed and the free ^125 I removed by chromatography through a PD10 column containing SEPHADEX™ G-25 (Pharmacia). […] The radioiodinated 11 kDa fibrin-binding peptide (500 μg/1.5 ml) was combined with 1 ml of fibrin-SEPHAROSE™ (5 mg fibrin/ml beads) equilibrated with 50 mM Tris-HCl, 0.1M NaCl buffer, pH 7.6, and rotated for 4 hours, at 4° C. The mixture was poured onto a disposable column (0.6 cm×8.0) and the unbound protein washed through. The column was equilibrated to room temperature and washed with the equilibration buffer.

fibrin [3] = assay: Binding of 35S-methionine labeled recombinant proteins (COS cell supernatants) to fibrin-SEPHAROSE, autoradiogram quantitation
From the text: Recombinant proteins from both the N-terminal and C-terminal fibrin binding sites of the Fn molecule were expressed by transfection into ^35 S-labeled (methionine) COS cells, as described by Schwarzbauer, J. Cell Biol., 113:1463-1473 and Sottile et al, J. Biol. Chem., 266:12840-12843, (1991) and their fibrin-binding activity determined by affinity chromatography experiment. The ^35 S-methionive labeled protein from the N-terminal site was a 10.5 kDa protein that comprised the ^4 F1.^5 F1 modules (^4 F1.^5 F1). The ^35 S-methionive labeled 25 kDa recombinant protein from the C-terminal fibrin binding site of Fn expressed by the COS cells commenced in the ^10 F1 and extended to the end of the molecule (^10 F1-end). For the affinity chromatography experiments each of the cell culture supernatants that contained the separately expressed proteins (1.5 ml) were combined with 0.4 ml of a fibrin-SEPHAROSE affinity matrix and incubated overnight at 4 C. with end over rotation. Upon removal of the supernatant by centrifugation, the matrices were washed extensively with FBB (10 times with a 0.5 ml wash volume each ); after each wash the matrices were centrifuged and the supernatants removed. […] Aliquots (50 ul) of each fraction was counted in a LS 6000 Scintilation Counter, the corresponding fractions pooled, and analyzed by SDS-PAGE followed by autoradiography. The autoradiograms were exposed for two weeks and scanned with a pdi Desktop Scanner. […] As a control, to indicate the relative level of expression of the recombinant proteins and to confirm their position in the autoradiograms, an aliquot of each COS cell culture supernatant was immunoprecipited with an anti-fibronectin antibody and compared with the ^35 S-labeled proteins retained by the fibrin affinity chromatography matrices by SDS-PAGE and autoradiography. […] The Protein A-Sepharose beads were separated by centrifugation, washed two times with Tris-buffered saline, resuspended in Laemmli sample buffer and applied to SDS-PAGE.
FIG. 30 illustrates the binding of ^35 S-methionine labeled recombinant modules from both the N- (^4 F1.^5 F1) and C-terminal (^10 F1-end) fibrin binding sites of Fn to fibrin-SEPHAROSE affinity matrices. […] The results of the autoradiograms are represented by the graphs which indicate the image analysis of the bound recombinant proteins.

fibrin [4] = conditions: for IC50: read-out: IC50, 50% inhibition of binding of biotinylated Fn to fibrin, 200 ng fibrin, 1 hour 22° C.
Description: Since the anti-Fn detection system described for the ELISA above could not be used in Fn competition assays employing the intact Fn molecule or the 25.8 kDa proteolytic fragment, purified Fn was biotinylated using water soluble NHS-LC-Biotin (Pierce Chemm. Co.; according to the manufacturer's instructions) and binding to fibrin detected by alkaline phosphatase conjugated streptavidin (diluted 1/500 in FBBT/BSA) for 1 hour at 22° C., followed by the addition of p-nitrophenyl phosphate, as described above. To ensure that the biotinylation of the Fn had not affected its ability to bind to fibrin, fibrin-binding activity was tested by incubating increasing concentrations of biotinylated Fn (10-300 ng/0.1 ml FBB) with the fibrin-coated wells (200 ng) and detected (see FIG. 28A) using alkaline phosphatase-conjugated streptavidin and the reaction developed as described for Direct Elisa.
To compare the relative fibrin-binding affinities of the ^4 F1.^5 F1 recombinant module pair and the 25.9 kDa proteolytic fragment (^1 F1-^5 F1) with that of the native Fn molecule, these purified proteins were competed with biotinylated plasma Fn for binding to fibrin coated wells and the extent of inhibition of binding assessed by incubation with alkaline phosphatase-conjugated streptavidin. […] Biotinylated Fn (100 ng/0.1 ml FBB: 2.3 nM) was combined with increasing concentrations (0-10 μM) of either unlabeled Fn, the 25.9 kDa proteolytic fragment, or the separate ^4 F1.^5 F1, and ^10 F1 recombinant modules and incubated with the fibrin-coated microtiter wells for 1 hour at 22° C. […] Bound biotinylated Fn was quantitated as described above.

fibrin [5] = assay: ELISA: competitive inhibition of fibronectin binding to fibrin by type 1 recombinant modules; conditions: for maximum inhibition of Fn binding to fibrin: saturating concentration
Description: Fibrin-binding activity was also assessed by an ELISA. Fn was reacted with fibrin-coated microtiter plates and bound Fn was determined by incubation with a polyclonal rabbit anti-Fn antiserum followed by alkaline phosphatase-labeled anti-rabbit Ig. […] Thus, on a mole-per-mole basis, assuming complete attachment of all the fibrinogen applied to the polystyrene plate, total proteolytic conversion to fibrin, and accessibility of the binding sites, 0.8 moles of Fn per mole of fibrin were required to achieve maximum binding (assuming a molecular weight of 340 kDa for the fibrin hexamer and 440 kDa for the Fn dimer).
The recombinant Fn modules were used to inhibit the binding of Fn to the fibrin-coated microtiter plates. […] At this saturating concentration, the binding of Fn to fibrin was inhibited by 70%.

fibrin [6] = assay: Reversibility (displacement) of 125I-11 kDa FBP binding to fibrin; conditions: negative control
Description: Detachable microtiter wells previously coated with 15 ng of fibrin were incubated with 100 ng/0.1 ml FBB (90 nM) of ^125 I-11 kDa for 1 hour at 22° C. The unbound radiolabeled protein was removed by extensive washing with FBB containing 0.1% Tween 20. […] The iodinated 11 kDa that remained bound to the removable wells was determined by quantitating the radioactivity attached to the individual wells in a gamma counter. Results were expressed as percentage of control wells incubated with buffer alone.

[7] = 35S-methionine labeled, optical density of autoradiogram

In the case of “^4 F1.^5 F1: recombinant 93 amino acid module pair, fourth and fifth type 1 modules of human fibronectin, residues 152-244 of SEQ ID NO:1”, the “binding to fibrin-coated wells” value (fibrin [1]) is reported as “bound to fibrin”, the “elution of protein remaining bound after warming to 22° C. with 1.0M urea and finally 2.0M urea” value (fibrin [2]) is reported as “eluted all the remaining bound” and the “elution of protein remaining bound after warming to 22° C. with 1.0M NaCl” value (fibrin [2]; 18% of total protein applied remained bound) is reported as “could not be eluted”. The “% of protein applied eluted on warming the column to 22° C. (room temperature)” value (fibrin [2]; FBB buffer) was 9%, the “% of protein applied eluted with 0.5M NaCl, 6.0M urea buffer” value (fibrin [2]; after warming to 22° C.) was 18% and the “% of protein applied retained by fibrin-SEPHAROSE” value (fibrin [2]; binding at 4° C., 500 μg applied) was 27%. The “% of protein applied retained by fibrin-Sepharose with increasing amounts applied” value (fibrin [2]; increasing amounts applied to a fixed volume of fibrin-Sepharose) was 25%, the “relative affinity for fibrin” value (fibrin [3]) was “lower affinity” and the “% of bound protein released by warming to 22° C.” value (fibrin [3]; [7]) was 88%. The “amount relative to antibody (w/w) used to obtain maximal inhibition” value (fibrin [4]) was 16 times, the “blocked binding of fibronectin to fibrin (summary, FIG. 29)” value (fibrin [4]) was 36% and the “maximal inhibition of biotinylated Fn binding to fibrin” value (fibrin [4]; 10 μM of protein (5,000 molar excess)) was 67%. The “maximum inhibition of Fn binding to fibrin (FIG. 29)” value (fibrin [4]; 0.1-25 μg inhibitor, biotinylated Fn 100 ng, fibrin 200 ng) was 67%, the IC50 (fibrin [4]; biotinylated Fn 2.3 nM) was 700 nM and the “concentration at which maximum inhibition was achieved” value (fibrin [5]; Fn 2.3 nM) was 10 µM. The “molar excess at maximum inhibition” value (fibrin [5]; Fn 2.3 nM) was 5,000, the “molar excess over Fn at 50% inhibition” value (fibrin [5]; Fn 2.3 nM) was 325 and the IC50 (fibrin [5]; Fn 100 ng (2.3 nM), fibrin 200 ng, read-out: concentration decreasing Fn binding to fibrin to 50%) was 750 nM. For the same substance, the “maximum inhibition of Fn binding to fibrin” value (fibrin [5]) was 70%.

For “^7 F1: recombinant seventh type 1 module from human fibronectin, residues 434-484 of SEQ ID NO:1 [reference compound]”, the “binding to fibrin-Sepharose” value (fibrin [2]) was “did not bind” and the “inhibition of the binding of Fn to fibrin (non-binding modules)” value (fibrin [5]; up to 5,000-50,000 molar excess compared to Fn) was < 20%.

In the case of “^10 F1-end: 25 kDa recombinant protein from COS cells commencing in the tenth type 1 module and extending to the end of fibronectin”, the “relative affinity for fibrin” value (fibrin [3]) is reported as “higher relative affinity”, the “% of bound protein released by warming to 22° C.” value (fibrin [3]; [7]) is reported as 35% and the “% of bound protein requiring 6M urea in 0.5M NaCl for elution” value (fibrin [3]; [7]) is reported as 65%.

“^10 F1: recombinant 46 amino acid tenth type 1 module from human fibronectin, residues 2141-2186 of SEQ ID NO:1 [reference compound]” was tested, and the “binding to fibrin-Sepharose” value (fibrin [2]) was “did not bind”, the “fibrin binding as single module” value (fibrin [4]) was “did not, as a single module, exhibit fibrin-binding” and the “inhibition of biotinylated Fn binding (non-fibrin-binding modules)” value (fibrin [4]; 0-10 μM competitor, biotinylated Fn 2.3 nM) was 10%.

With “egg lysozyme: unrelated protein employed as negative control” the “displacement of bound 125I-11 kDa FBP” value (fibrin [6]) was “unable to disrupt; also recorded: unable to displace”.

For “fibronectin: purified intact human plasma fibronectin, 440 kDa dimer [reference compound]”, the “amount giving maximum binding per 550 ng of fibrin” value (fibrin [1]) was “approximately 500 ng”, the “concentration at saturation of binding to fibrin” value (fibrin [1]; 200 ng Fn to 200 ng of fibrin (5.88 nM)) was ~4.54 nM and the “binding to fibrin-coated wells” value (fibrin [1]) was “bound to the fibrin-coated wells in a concentration dependent manner”. The “moles per mole of fibrin required to achieve maximum binding” value (fibrin [1]; assuming 340 kDa fibrin hexamer, 440 kDa Fn dimer) was 0.8, the “concentration required for complete inhibition of biotinylated Fn binding” value (fibrin [4]; biotinylated Fn 2.3 nM) was 2.2 µM and the “molar excess required for complete inhibition” value (fibrin [4]; biotinylated Fn 2.3 nM) was 1000. For the same substance, the IC50 (fibrin [4]; biotinylated Fn 2.3 nM) was 20 nM.

In the case of “t-PA type 1 module: single type 1 module from tissue plasminogen activator (CRDEKTQMIYQQHQSWLRPVLRSNRVEYCWCNSGRAQCH) [reference compound]”, the “maximum inhibition of Fn binding to fibrin” value (fibrin [5]) is reported as 55%.

Reference: patent US5792742A, “Fibrin-binding peptide fragments of fibronectin” (New York University, priority 1994, dated 1998)
